Data on 21 compounds can be found in patent US10316038B2, “Pyrrolopyrimidine ITK inhibitors for treating inflammation and cancer” (ACLARIS THERAPEUTICS, INC., priority 2017, dated 2019).

One test addresses T1, ITK (Homo sapiens, UniProt Q08881).
T1 sequence (Q08881 1-620): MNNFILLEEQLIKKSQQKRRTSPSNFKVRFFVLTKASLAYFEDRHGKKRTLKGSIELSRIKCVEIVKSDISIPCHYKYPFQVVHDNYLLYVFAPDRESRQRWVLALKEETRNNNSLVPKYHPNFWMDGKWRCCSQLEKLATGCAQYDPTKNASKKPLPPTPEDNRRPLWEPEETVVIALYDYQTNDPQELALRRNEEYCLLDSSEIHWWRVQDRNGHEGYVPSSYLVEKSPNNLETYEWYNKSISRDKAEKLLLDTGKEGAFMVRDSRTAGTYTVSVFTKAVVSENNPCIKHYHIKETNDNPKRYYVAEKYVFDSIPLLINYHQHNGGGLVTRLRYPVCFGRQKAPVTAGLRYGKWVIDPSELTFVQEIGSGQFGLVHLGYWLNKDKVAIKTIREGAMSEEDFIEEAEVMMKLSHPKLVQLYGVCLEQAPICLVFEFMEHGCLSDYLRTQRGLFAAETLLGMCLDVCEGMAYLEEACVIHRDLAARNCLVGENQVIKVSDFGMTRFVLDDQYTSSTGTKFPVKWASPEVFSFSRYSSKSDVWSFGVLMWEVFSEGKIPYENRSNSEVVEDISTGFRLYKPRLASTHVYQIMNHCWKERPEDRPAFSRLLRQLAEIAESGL
Put plainly: ITK inhibitor binding potency (LanthaScreen competitive binding assay). As to conditions: TR-FRET competitive binding, 10 nM ITK, 50 nM kinase tracer-236; pre-incubation condition not given; read-out: ITK Inhibition IC50. The source says: The ability of candidate compounds to interact with ITK is quantitated by a competitive binding assay using the LanthaScreen technology developed by Life Technologies. This assay is based on the binding of a proprietary, Alexa Fluor™ 647-labeled, ATP-competitive kinase inhibitor (kinase tracer-236) to the ITK expression construct in the presence of a Europium-conjugated antibody, resulting in a FRET (fluorescence resonance energy transfer) signal. Displacement of the kinase tracer by compound results in a lower emission ratio upon excitation of the Europium chelate. Candidate compounds are designed as potential irreversible inhibitors of ITK, capable of ligating to an active site cysteine residue resulting in time dependent covalent binding. The time dependent nature of irreversible inhibition is investigated by performing the binding assay with and without a pre-incubation of compound and ITK. […] The inhibitory potency of candidate compounds is measured in 20 mM HEPES pH 7.5, 10 mM MgCl2, 0.01% BSA, 0.0005% Tween-20, and 2% DMSO in the presence of 10 nM ITK, 2 nM Eu-anti-GST antibody, and 50 nM kinase tracer-236 using a 384-well plate format. Background signal is defined in the absence of ITK and uninhibited signal is defined in the presence of vehicle (2% DMSO) alone. Compounds were evaluated in an 11 point dose-response ranging from 20 uM to 0.34 nM. The binding assays are performed under two preincubation conditions to evaluate time dependence of inhibition. For the pre-incubation assay, ITK and Eu-anti-GST antibody are pre-incubated with compound or vehicle for two hours prior to the addition of kinase tracer. The non-preincubated assay is run under conditions where ITK and Eu-anti-GST antibody are added to a mixture of compound and kinase tracer. IC50 values of compounds are determined using a 4 parameter logistical fit of emission ratio as a function of the concentration of compound.

The subject of test [1] is ITK phosphorylation of its substrate, PLCγ1, at Y783. Put plainly: ITK target modulation assay (phospho-Y783 PLCγ1 immunoblot in Jurkat T cells). The settings on record: Homo sapiens, Jurkat, 2 h, 2 hours compound, CD3/CD28 Dynabeads stimulation 100 sec, anti-phospho-Y783 PLCγ1 immunoblot, read-out: PLC-γ Inhibition IC50. In kind it is cell-based. The method, then: Target modulation was based upon the ability of a compound to inhibit ITK phosphorylation of its substrate, PLCγ1, at […]. Human Jurkat T cells were placed in snap-cap polypropylene tubes at 4 million per tube in 800 μL medium (RPMI1640 with 10% heat inactivated serum and […] 2-mercaptoethanol and supplemented with glutamine/penicillin/streptomycin). Compounds were added as 100 μL of 10× working stock solutions in medium with 1% DMSO (or medium with 1% DMSO for controls) and placed in a 37° C. incubator for 2 hours. Stimulation was carried out using CD3/CD28 Dynabeads to activate the T cell receptor and mimic antigen presenting cells. Beads were added for 100 sec at a ratio of 1 bead per cell, in 100 μL medium (or medium alone for unstimulated control). Starting at 70 sec, cells and beads were pelleted in a microfuge for 15 sec, the supernatant aspirated, and 50 μL lysis buffer was added per tube and mixed with the pellet at the 100 sec time point. Tubes were placed on a rotator for 30 min at 4° C., and cell debris was pelleted in a microfuge. Supernatant was mixed 1:1 with 2× Sample Buffer and subjected to SDS-polyacrylamide gel electrophoresis. After transfer to nitrocellulose, immunoblotting was done with anti-phospho-[…] PLCγ1 antibody. Immunoblots were visualized with ECL using horseradish peroxidase conjugated secondary antibody.

Molecules are shown by their SMILES.

As usually defined, the IC50 is the midpoint of a concentration-inhibition curve. On to `C=CC(=O)Nc1cccc(-c2cnc3[nH]cc(-c4cncc(C#N)c4)c3c2)c1` [Example 8, N-(3-(3-(5-cyano-pyridin-3-yl)-1H-pyrrolo[2,3-b]-pyridin-5-yl)-phenyl)acrylamide], for which the results for the IC50 (on ITK; in test [1]) were not above 100 nM and 1000 to 5000 nM, respectively.
The like results for `CN(C)C/C=C/C(=O)Nc1cccc(-c2cnc3[nH]cc(-c4cncc(C#N)c4)c3c2)c1` [Example 11, (E)-N-(3-(3-(5-cyanopyridin-3-yl)-1H-pyrrolo-[2,3-b]pyridin-5-yl)phenyl)-4-(dimethylamino)-but-2-enamide] were, in that order, not above 100 nM and more than 5000 nM.
The like results for `C=CC(=O)N(C)c1cc(OC)cc(-c2cnc3[nH]cc(-c4cccc(C#N)c4)c3c2)c1` [Example 65, N-(3-(3-(3-cyano-phenyl)-1H-pyrrolo[2,3-b]-pyridin-5-yl)-5-methoxyphenyl)-N-methylacryl-amide] were, in that order, not above 100 nM and not above 1000 nM.
With `COc1cc(NC(=O)/C=C/CN(C)C)cc(-c2cnc3[nH]cc(-c4ccnc(F)c4)c3c2)c1` [Example 38, (E)-4-(dimethyl-amino)-N-(3-(3-(2-fluoropyridin-4-yl)-1H-pyrrolo-[2,3-b]pyridin-5-yl)-5-methoxy-phenyl)but-2-enamide], the figures for the IC50 (at ITK; in test [1]) were not above 100 nM and not above 1000 nM, respectively.
In the same order, the values of `C=CC(=O)Nc1cc(-c2cnc3[nH]cc(-c4ccnc5[nH]ccc45)c3c2)cc(C(F)(F)F)c1` [Example 25, N-(3-(1H,1′H-[3,4′-bipyrrolo-[2,3-b]pyridin]-5-yl)-5-(trifluoro-methyl)phenyl)-acrylamide] are not above 1000 nM and not above 1000 nM.
In the same order, the values of `CN(C)C/C=C/C(=O)Nc1cc(-c2cnc3[nH]cc(-c4ccncn4)c3c2)cc(C(F)(F)F)c1` [Example 49, (E)-4-(dimethyl-amino)-N-(3-(3-(pyrimidin-4-yl)-1H-pyrrolo[2,3-b]pyridin-5-yl)-5-(trifluoro-methyl)phenyl)-but-2-enamide] are not above 100 nM and not above 1000 nM.
In the same order, the values of `C=CC(=O)Nc1cc(-c2cnc3[nH]cc(-c4ccncn4)c3c2)cc(C(F)(F)F)c1` [Example 22, N-(3-(3-(pyrimidin-4-yl)-1H-pyrrolo-[2,3-b]pyridin-5-yl)-5-(trifluoro-methyl)phenyl)-acrylamide] are not above 100 nM and not above 1000 nM.
As for `C=CC(=O)Nc1cc(-c2cnc3[nH]cc(-c4cnc(OC)nc4)c3c2)cc(C(F)(F)F)c1` [Example 68, N-(3-(3-(2-methoxy-pyrimidin-5-yl)-1H-pyrrolo[2,3-b]pyridin-5-yl)-5-(trifluoromethyl)-phenyl)acrylamide], the IC50 on ITK was not above 100 nM; in test [1] it was not above 1000 nM.
The like results for `COc1cc(NC(=O)/C=C/CN(C)C)cc(-c2cnc3[nH]cc(-c4ccncn4)c3c2)c1` [Example 52, (E)-4-(dimethyl-amino)-N-(3-methoxy-5-(3-(pyrimidin-4-yl)-1H-pyrrolo-[2,3-b]pyridin-5-yl)phenyl)but-2-enamide] were, in that order, not above 100 nM and 1000 to 5000 nM.
The like results for `COc1cc(NC(=O)/C=C/CN(C)C)cc(-c2cnc3[nH]cc(-c4ccnc5[nH]ccc45)c3c2)c1` [Example 31, (E)-N-(3-(1H,1′H-[3,4′-bipyrrolo[2,3-b]pyridin]-5-yl)-5-methoxyphenyl)-4-(dimethylamino)-but-2-enamide] were, in that order, not above 100 nM and not above 1000 nM.
In the same order, the values of `C=CC(=O)Nc1cncc(-c2cnc3[nH]cc(-c4ccncn4)c3c2)c1` [Example 50, N-(5-(3-(pyrimidin-4-yl)-1H-pyrrolo-[2,3-b]pyridin-5-yl)pyridin-3-yl)acrylamide] are not above 100 nM and not above 1000 nM.
As to `C=CC(=O)Nc1cc(OC)cc(-c2cnc3[nH]cc(-c4ccnc(C)c4)c3c2)c1` [Example 28, N-(3-methoxy-5-(3-(2-methyl-pyridin-4-yl)-1H-pyrrolo[2,3-b]-pyridin-5-yl)-phenyl)acrylamide], the IC50 on ITK was not above 100 nM; in test [1] it was not above 1000 nM.
The like results for `CN(C)C/C=C/C(=O)Nc1cc(-c2cnc3[nH]cc(-c4ccnc5c4ccn5C)c3c2)cc(C(F)(F)F)c1` [Example 55, (E)-4-(dimethyl-amino)-N-(3-(1′-methyl-1H,1′H-[3,4′-bipyrrolo[2,3-b]pyridin]-5-yl)-5-(trifluoro-methyl)phenyl)-but-2-enamide] were, in that order, not above 100 nM and not above 1000 nM.
The like results for `C=CC(=O)Nc1cc(OC)cc(-c2cnc3[nH]cc(-c4ccnc5[nH]ccc45)c3c2)c1` [Example 15, N-(3-(1H,1′H-[3,4′-bipyrrolo-[2,3-b]pyridin]-5-yl)-5-methoxy-phenyl)acrylamide] were, in that order, not above 100 nM and not above 1000 nM.
In the same order, the values of `Cc1cc(-c2c[nH]c3ncc(-c4cncc(NC(=O)/C=C/CN(C)C)c4)cc23)ccn1` [Example 42, (E)-4-(dimethyl-amino)-N-(5-(3-(2-methylpyridin-4-yl)-1H-pyrrolo-[2,3-b]pyridin-5-yl)pyridin-3-yl)-but-2-enamide] are not above 100 nM and not above 1000 nM.
Take `COc1cc(NC(=O)/C=C/CN(C)C)cc(-c2cnc3[nH]cc(-c4ccnc(C#N)c4)c3c2)c1` [Example 39, (E)-N-(3-(3-(2-cyanopyridin-4-yl)-1H-pyrrolo-[2,3-b]pyridin-5-yl)-5-methoxy-phenyl)-4-(dimethylamino)-but-2-enamide]: the values for the IC50 (at ITK; in test [1]) were not above 100 nM and not above 1000 nM, respectively.
Regarding `Cc1cc(-c2c[nH]c3ncc(-c4cccc(NC(=O)/C=C/CN(C)C)c4)cc23)ccn1` [Example 48, (E)-4-(dimethyl-amino)-N-(3-(3-(2-methylpyridin-4-yl)-1H-pyrrolo-[2,3-b]pyridin-5-yl)phenyl)but-2-enamide], the results for the IC50 (on ITK; in test [1]) were not above 100 nM and not above 1000 nM, respectively.
For the compound `CN(C)C/C=C/C(=O)Nc1cc(-c2cnc3c(c2)c(-c2cccc(C#N)c2)cn3C)cc(C(F)(F)F)c1` [Example 70], the IC50 is more than 1000 nM on ITK and more than 5000 nM in test [1].
With `C=CC(=O)Nc1cccc(-c2cnc3[nH]cc(-c4cncc(NC)c4)c3c2)c1` [Example 24, N-(3-(3-(5-(methylamino)-pyridin-3-yl)-1H-pyrrolo[2,3-b]-pyridin-5-yl)-phenyl)acrylamide], the half-inhibitory concentration (IC50) at ITK was not above 100 nM; in test [1] it was not above 1000 nM.
For the compound `C=CC(=O)Nc1cc(OC)cc(-c2cnc3[nH]cc(-c4ccnc(NC)n4)c3c2)c1` [Example 41, N-(3-methoxy-5-(3-(2-(methyl-amino)pyrimidin-4-yl)-1H-pyrrolo-[2,3-b]pyridin-5-yl)phenyl)acryl-amide], the IC50 at ITK is not above 100 nM; in test [1], not above 1000 nM.
As to `CN(C)C/C=C/C(=O)Nc1cncc(-c2cnc3[nH]cc(-c4cccc(C#N)c4)c3c2)c1` [Example 20, (E)-N-(5-(3-(3-cyanophenyl)-1H-pyrrolo[2,3-b]pyridin-5-yl)pyridin-3-yl)-4-(dimethyl-amino)but-2-enamide], the IC50 at ITK is not above 100 nM; in test [1], not above 1000 nM.
